The source of these data is PMC2364952, “The Anti-Inflammatory Activity of Boron Derivatives in Rodents” (Metal-Based Drugs, 1995).

Molecules are shown by their SMILES.

The test system of experiment [1] is carrageenan-induced inflammation of paw. Briefly: Carrageenan-induced paw edema, rats.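 On Rat Inflammatory: paw weight increase as percent of control rats.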 Type of experiment: in vivo, Sprague Dawley male rats. Conditions: for reduction in induced edema in rats: 8 mg/kg x 2; for Rat Inflammatory: 8 mg/kg x 2, I.P., Table 2. (In the carrageenan paw model, swelling and tenderness develop within hours.)
For experiment [2], the system named is acetic acid induced stretch reflex. The experiment is described as follows: Local analgesic screen (acetic acid writhing). Conditions: for Mice Writhing Reflex: 8 mg/kg I.P., Table 2; for reduction of the reflex action: mice, acetic acid induced local pain, 8 mg/kg. Type of experiment: in vivo, CF1 mice.
The subject of experiment [3] is carrageenan-induced inflammation of hind foot. Briefly: Carrageenan-induced foot edema, mice. In kind it is in vivo, CF1 male mice. Particulars: for reduction of induced edema / anti-inflammatory activity in mouse edema screen: mice; for reduction of induced edema: 8 mg/kg x 2, I.P., carrageenan; for inhibition of induced inflammation: standards at their therapeutic dose (indomethacin 8 mg/kg x 2, pentoxifylline and phenylbutazone 50 mg/kg x 2); for anti-inflammatory activity in mouse edema screen: 8 mg/kg x 2.

For the next experiment, the target named is acid phosphatase. Briefly: Acid phosphatase activity, mouse macrophages. Type of experiment: cell-based, mouse (J774 macrophages). Particulars: Table 3; read-out: IC50 Acid Phosphatase, Mouse Macrophage.
In the next experiment the test system is cathepsin. The experiment is described as follows: Cathepsin activity, mouse macrophages. In kind it is cell-based, mouse (J774 macrophages). Particulars: Table 3; read-out: IC50 Cathepsin, Mouse Macrophage.
The subject of a further experiment is trypsin. The experiment is described as follows: Trypsin proteolytic activity, mouse macrophages. Type of experiment: cell-based, mouse (J774 macrophages). Particulars: Table 5; read-out: IC50 Trypsin, Mouse Macrophage.
A further experiment has as its target elastase. Briefly: Elastase activity, mouse macrophages. Type of experiment: cell-based, mouse (J774 macrophages). Particulars: Table 5; read-out: IC50 Elastase, Mouse Macrophage.
For experiment [4], the system named is tail flick response to heat. Briefly: Hot plate tail flick screen. In kind it is in vivo, CF1 male mice. Particulars: for Mice Tail Flick: 8 mg/kg I.P., hot plate, Table 2; for tail flick assay time / blocking central pain compared with morphine: mice; for tail flick assay time: 8 mg/kg; for blocking central pain compared with morphine: tail flick.
The target of experiment [5] is prostaglandin cyclooxygenase. Briefly: Prostaglandin cyclooxygenase activity, macrophages. In kind it is cell-based, mouse (J774 macrophages). Particulars: Table 7.
The target in another experiment is aryl sulphatase. The experiment is described as follows: Aryl sulfatase activity, mouse macrophages. Type of experiment: cell-based, mouse (J774 macrophages). Conditions: Table 3; read-out: IC50 Aryl Sulfatase, Mouse Macrophage.
The subject of experiment [6] is carrageenan-induced pleural fluid. Briefly: Anti-pleurisy screen.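 On Rat Pleurisy: Pleural fluid volume as percent of control rats.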 In kind it is in vivo, Sprague Dawley male rats.

The term IC50 denotes the point on the concentration scale where inhibition reaches its midpoint.

Turning to `CCC[NH+]([BH2-]C(=O)O)CCC` [Compound 6], in experiment [1], the “reduction in induced edema in rats” value is “at least 40%” and the “Rat Inflammatory” value is 55 % of control. In addition, the “Mice Writhing Reflex” value in experiment [2] is on record as 19 % of control.

As for `COC(=O)[BH2-][NH+]1CCC(c2ccccc2)CC1` (stereo not drawn) [Compound 87], the “reduction of induced edema” value in experiment [3] is “at least 30%”. Besides, the “Mice Writhing Reflex” value in experiment [2] was 89 % of control. In addition, the IC50 on acid phosphatase came out at 2.68 µM; in the experiment with cathepsin, 3.99 µM; in the experiment on trypsin, 2.85 µM; on elastase, 6.98 µM.

With `C[NH+](C)[BH2-]C(=O)O` [Compound 3], the “Mice Tail Flick” value in experiment [4] is listed as 156 % of control. In experiment [4], the “tail flick assay time” value was “increased”. For the same molecule, the IC50 at acid phosphatase is 4.75 µM; in the experiment with cathepsin, 6.39 µM; in the experiment with trypsin, 3.1 µM; at elastase, 2.67 µM; in experiment [5] it was 2.91 µM.

With `CCNC(=O)[BH2-][N+](C)(C)CC[N+](C)(C)[BH2-]C(=O)NCC` [Compound 30], the “Mice Writhing Reflex” value in [2] is reported as 34 % of control.

For `CC(=O)CCCCn1c(=O)c2c(ncn2C)n(C)c1=O` [pentoxifylline, reference compound], the “inhibition of induced inflammation” value in experiment [3] is recorded as 30%.

As to `CCNC(=O)[BH2-][NH2+]C` [Compound 23], the “reduction in induced edema in rats” value in experiment [1] is listed as “at least 40%”. In addition, the “Rat Inflammatory” value in [1] is reported as 41 % of control. The “Mice Writhing Reflex” value in experiment [2] is given as 27 % of control. Moreover, the “reduction of the reflex action” value in experiment [2] is “at least 45%”. Also, the “Mice Tail Flick” value in experiment [4] is 81 % of control. Also, the IC50 at acid phosphatase is 1.12 µM; in the experiment on cathepsin, 3.95 µM; at aryl sulphatase, 9.27 µM; with trypsin it was 2.03 µM; on elastase, 3.29 µM; in experiment [5] it was 5.19 µM.

Take `CCCCNC(=O)[BH2-][N+](C)(C)C` [Compound 27]: the “reduction of the reflex action” value in experiment [2] is “at least 45%”.

Turning to `CCOC(=O)[BH2-][N+](C)(C)CP(=O)(OCC)OCC` [Compound 68], in experiment [3], the “reduction of induced edema” value is “at least 40%”.

For `CCCCCCCCCCCCCCCC[N+](C)(C)[BH2-]C(=O)OCC` [Compound 19], the “anti-inflammatory activity in mouse edema screen” value in experiment [3] is given as “less active”.

As for `CCNC(=O)[BH2-][NH+](C)CP(=O)(OC(C)C)OC(C)C` (stereo not drawn) [Compound 73], the “reduction of induced edema” value in [3] is reported as “at least 40%”.

In the case of `CN1CC[C@]23c4c5ccc(O)c4O[C@H]2[C@@H](O)C=C[C@H]3[C@H]1C5` [Morphine, morphine, reference compound], the “Mice Tail Flick” value in experiment [4] is recorded as 213 % of control.

Regarding `CCCCCCCCCCCCCCCCCC[N+](C)(C)[BH2-]C#N` [Compound 36], the “anti-inflammatory activity in mouse edema screen” value in [3] is recorded as “good activity”. In addition, the “Mice Writhing Reflex” value in [2] was 61 % of control. For the same molecule, the “reduction of the reflex action” value in experiment [2] is on record as “at least 45%”. For the same molecule, the concentration for half-maximal inhibition (IC50) stood at 2.68 µM at acid phosphatase; 3.69 µM in the experiment on cathepsin; 4.34 µM with trypsin; 10.3 µM on elastase; 2.23 µM in experiment [5].

`Cc1[nH]cc[n+]1[BH2-]C#N` [Compound 91]: the “reduction of induced edema” value in [3] is given as “at least 30%”.

For the molecule `CCNC(=O)[BH2-][NH+](C)CP(=O)(OCC)OCC` (stereo not drawn) [Compound 69], the “reduction of induced edema” value in experiment [3] is “at least 40%”.

Regarding `CCNC(=O)[BH2-][P+]([O-])(OCC)OCC.[Na+]` [Compound 54], the “reduction of induced edema” value in [3] is “at least 40%”.

Take `C[N+]1([BH2-]C(=O)O)CCOCC1` [Compound 84]: in experiment [3], the “reduction of induced edema” value is reported as “at least 30%”.

`CCCC[N+](CCCC)(CCCC)CCCC.CCNC(=O)[BH2-][P+]([O-])(OCC)OCC` [Compound 57]: the IC50 on acid phosphatase came to 4.43 µM; in the experiment on cathepsin, 6.49 µM; in the experiment with trypsin, 3.76 µM; at elastase, 9.01 µM; in experiment [5], 3.09 µM.

Turning to `C[N+](C)(C)[BH2-]C(=O)O` [Compound 4], in [1], the “reduction in induced edema in rats” value is recorded as “at least 40%” and the “Rat Inflammatory” value is 55 % of control. Also, in experiment [2], the “Mice Writhing Reflex” value is 2 % of control and the “reduction of the reflex action” value was 80%.

As for `CCOP(=O)(C[N+](C)(C)[BH2-]C#N)OCC` [Compound 66], the “reduction of induced edema” value in [3] is given as “at least 40%”.

Consider `N#C[BH2-][P+](c1ccccc1)(c1ccccc1)c1ccccc1` [Compound 48], for which, in experiment [1], the “Rat Inflammatory” value is 78 % of control. Further, in [2], the “Mice Writhing Reflex” value is listed as 50 % of control and the “reduction of the reflex action” value was “at least 45%”. Also, in [4], the “Mice Tail Flick” value is listed as 134 % of control.

As for `CCNC(=O)[BH2-][N+](C)(C)C` [Compound 25], the “Mice Writhing Reflex” value in experiment [2] is reported as 89 % of control.

Regarding `CC[N+]([BH2-]C#N)(CC)CP(=O)(OC)OC` [Compound 62], the “reduction of induced edema” value in experiment [3] is given as “at least 40%”.

As for `O=C(O)[BH2-][n+]1ccccc1` [Compound 11], the “Rat Inflammatory” value in experiment [1] is listed as 77 % of control.

On to `CCCCCCCCCCCCCCCCCC[N+](C)(C)[BH2-]C(=O)O` [Compound 9], for which the “Rat Inflammatory” value in experiment [1] is on record as 72 % of control. Also, the “Mice Writhing Reflex” value in experiment [2] is recorded as 14 % of control. Besides, in experiment [2], the “reduction of the reflex action” value is recorded as 80%. Also, in experiment [4], the “Mice Tail Flick” value is given as 231 % of control. For the same molecule, in experiment [4], the “tail flick assay time” value is “increased”. In addition, the “blocking central pain compared with morphine” value in experiment [4] is reported as “as effective as morphine”. In addition, in experiment [6] (8 mg/kg), the “pleurisy edema in rats” value was “reduced significantly”. In experiment [6] (rats, 8 mg/kg I.P., 1 h before and 3 h after carrageenan, Table 2), the “Rat Pleurisy” value was 37 % of control. Also, the IC50 at acid phosphatase amounted to 5.34 µM; in the experiment on cathepsin it was 5.09 µM; in the experiment on trypsin, 2.07 µM; on elastase, 6.29 µM; in experiment [5], 2.51 µM.

As for `CC[N+]([BH2-]C#N)(CC)CP(=O)(OC(C)C)OC(C)C` [Compound 64], the “reduction of induced edema” value in experiment [3] is listed as “at least 40%”.

Regarding `C[NH2+][BH2-]C(=O)NO.[H+].c1ccc([B-](c2ccccc2)(c2ccccc2)c2ccccc2)cc1` [Compound 75], in [3], the “reduction of induced edema” value is “at least 40%”. Further, the “Mice Writhing Reflex” value in [2] was 34 % of control. Moreover, the “reduction of the reflex action” value in experiment [2] was “at least 45%”. In addition, the “Mice Tail Flick” value in experiment [4] was 279 % of control. Besides, the “tail flick assay time” value in [4] is listed as “increased”. The “blocking central pain compared with morphine” value in experiment [4] is reported as “as effective as morphine”. For the same molecule, the IC50 at acid phosphatase was 6.61 µM; with cathepsin, 4.58 µM; at aryl sulphatase, 1.5 µM; in the experiment on trypsin, 2.51 µM; on elastase, 7.59 µM; in [5], 6.61 µM.

On to `CCCCC1C(=O)N(c2ccccc2)N(c2ccccc2)C1=O` [Phenylbutazone, phenylbutazone, reference compound], for which the “inhibition of induced inflammation” value in [3] was 47%. Moreover, the “Rat Inflammatory” value in experiment [1] is given as 47 % of control.

Turning to `CC(C)OP(=O)(C[NH+](C)[BH2-]C#N)OC(C)C` (stereo not drawn) [Compound 67], the “reduction of induced edema” value in experiment [3] is recorded as “at least 40%”.

As to `CC[NH2+][BH2-]C(=O)O` [Compound 5], in experiment [1], the “reduction in induced edema in rats” value was “at least 40%” and the “Rat Inflammatory” value is listed as 59 % of control. In [2], the “Mice Writhing Reflex” value is given as 1 % of control and the “reduction of the reflex action” value was determined as 80%. Besides, in experiment [4], the “Mice Tail Flick” value is 196 % of control and the “tail flick assay time” value is listed as “increased”.

`CC(C)OP(=O)(C[NH+](C)[BH2-]C(=O)O)OC(C)C` (stereo not drawn) [Compound 71]: in experiment [3], the “reduction of induced edema” value is “at least 40%”.
